# Results reported in article PMC6376154 (International Journal for Parasitology: Drugs and Drug …, 2019).
# Where two headings read alike, the source gives them in different places.
# Tests used:
# [1] = tested on: bovine PBMC stimulated with ConA (Con A blasts); assay: 3H-thymidine incorporation toxicity assay on ConA-stimulated uninfected bovine PBMC (CC50); conditions: read-out: CC50 (μM) Con A blasts; uninfected bovine PBMC stimulated with ConA, 48 h compound, 3H-thymidine incorporation
# Procedure: (§1) All the MMV compounds were initially tested for inhibitory activity on the growth of F100TpM, a bovine lymphocyte cell line infected by T. parva. […] All compounds were tested in triplicate.
# (§2) The radiolabeled precursor ^3H-thymidine is incorporated into DNA strands during cell replication and radioisotope incorporation is often used as a measure of cell proliferation.
# (§3) IC50 values were calculated using the Graph Pad Prism 7 software (GraphPad Software, Inc., La Jolla, CA), and average values of radio-isotope incorporation in wells with and without compound on the growth of F100TpM cells. The CC50 values were calculated using ^3H-thymidine incorporation values determined on the growth of PBMC stimulated with ConA. The therapeutic index of a compound was calculated by dividing the CC50 value with the IC50 value.
# [2] = as above; conditions: bovine, uninfected bovine PBMC stimulated with ConA (Con A blasts), CC50 (μM) Con A blasts, uninfected bovine PBMC stimulated with ConA, 48 h compound, 3H-thymidine incorporation
# Procedure: as §1, §2, §3
# U87 = tested on: U87; design: method as in Van Voorhis et al., 2016; conditions: at 5 μM; only one of nine cell lines tested; ref Van Voorhis et al., 2016; cited from earlier work
# Trypanosoma cruzi = tested on: Trypanosoma cruzi; design: method as in Van Voorhis et al., 2016; conditions: at 5 μM; ref Van Voorhis et al., 2016; cited from earlier work
# [3] = tested on: Plasmodium berghei ookinete; design: method as in Van Voorhis et al., 2016; conditions: at 10 μM; ref Van Voorhis et al., 2016; cited from earlier work
# [4] = tested on: F100TpM, a bovine lymphocyte cell line infected by T. parva; assay: 3H-thymidine incorporation growth assay on F100TpM cells (screen at 1 μM and IC50 titration);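 on all read-outs here: growth inhibition compared against wells lacking compound, run in triplicate, and CC50 derived from 3H-thymidine uptake by PBMC stimulated with ConA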; conditions: for IC50: Bos taurus, Lymphocyte, read-out: IC50 (μM) F100TpM, T. parva infected lymphocyte cell line, 48 h compound, 3H-thymidine incorporation; for TI (CC50/IC50), therapeutic index: CC50 on Con A blasts divided by IC50 on F100TpM
# Procedure: as §1, §2, §3
# [5] = tested on: P. falciparum gametocyte NF54-late stage; design: method as in Van Voorhis et al., 2016; conditions: at 5 μM; ref Van Voorhis et al., 2016; cited from earlier work
# [6] = tested on: P. falciparum 3D7 asexual blood stage; conditions: cited from earlier work
# [7] = design: method as in MMV data sheet; conditions: at 5 uM; ref MMV data sheet; cited from earlier work
# [8] = tested on: Theileria annulata infected cell lines; design: method as in Hostettler et al., 2016; conditions: ref Hostettler et al., 2016; cited from earlier work
# [9] = tested on: human foreskin fibroblast control cells; design: method as in Hostettler et al., 2016; conditions: T. annulata assay; ref Hostettler et al., 2016; cited from earlier work
# T. annulata gene TaSP = tested on: T. annulata gene TaSP; design: method as in Hostettler et al., 2016; conditions: ref Hostettler et al., 2016; cited from earlier work
structure (smiles),measurement,setting,value
COc1ccc2nc(C)cc(Nc3cccc(O)c3)c2c1 [MMV008212],CC50,[1],> 10 µM
same,CC50 at 48 h,[2],> 5 µM
same,"cell death, U87 cell line",U87,76%
same,growth inhibition of Trypanosoma cruzi,Trypanosoma cruzi,100%
same,growth inhibition of Plasmodium berghei ookinete,[3],76%
same,IC50,[4],0.78 µM
same,"TI (CC50/IC50), therapeutic index",[4],>12
same,growth inhibition of P. falciparum gametocyte NF54-late stage,[5],91%
same,percent_inh @ 5 uM,"[6]; MMV Malaria Box sheet, ref MMV data sheets",98%
same,EC50,"[6]; MMV Malaria Box sheet, ref MMV data sheets, read-out: EC50_nM",969 nM
same,growth inhibition of P. falciparum 3D7 asexual blood stage,"[6]; at 5 μM, ref Van Voorhis et al., 2016",98%
same,EC50,"[6]; source GNF, ref ChEMBL_NTD, read-out: CHEMBL EC50",228 nM
CCOc1cccc(C(=O)Nc2ccc(-c3nc4ccccc4[nH]3)cc2)c1 [MMV019202],Solubility (Comment),[7],Solubility issue at 5 uM
same,% inh. At 2.5 uM,"[6]; 2.5 uM, Comment column, ref MMV data sheet",97%
same,EC50,"[6]; value(s) per source (GSK, GNF, StJude), separated by semicolon, ref ChEMBL-NTD, read-out: CHEMBL EC50",1010 nM
COc1ccc2c(=O)cc(C(Cl)(Cl)Cl)oc2c1 [MMV665820],CC50 at 48 h,[2],0.25 µM
same,inhibitory activity on T. annulata cell lines,[8],inhibitory
same,viability of human foreskin fibroblast control cells,[9],did not impair viability
same,lowering of relative expression of T. annulata gene TaSP,T. annulata gene TaSP,failed to lower the relative expression of T. annulata gene TaSP by 50%
same,IC50,[4],0.15 µM
same,"TI (CC50/IC50), therapeutic index",[4],1.67
same,percent_inh @ 5 uM,"[6]; MMV Malaria Box data sheet, ref MMV data sheets",94%
same,EC50,"[6]; MMV Malaria Box data sheet, ref MMV data sheets, read-out: EC50_nM",520 nM
same,EC50,"[6]; source StJude, ref ChEMBL_NTD, read-out: CHEMBL EC50",15000 nM
